Test results from article PMC2902711 (Toxicon : official journal of the International Society on …, 2010).
Where two headings read alike, the source gives them in different places.

Key:
[1] = system: RTA; conditions: read-out: IC50 for RTA; cited from earlier work
[2] = molecular target: Shiga toxin type 1 subunit A (StxA1) (Bacteriophage H30, UniProt P10149); experiment: biochemical; assay type: biochemical, Escherichia coli
[3] = system: Vero cells; conditions: for concentrations at which the compound was itself cytotoxic: African green monkey

Sequence of Shiga toxin type 1 subunit A (StxA1) (P10149 23-273 limits assumed): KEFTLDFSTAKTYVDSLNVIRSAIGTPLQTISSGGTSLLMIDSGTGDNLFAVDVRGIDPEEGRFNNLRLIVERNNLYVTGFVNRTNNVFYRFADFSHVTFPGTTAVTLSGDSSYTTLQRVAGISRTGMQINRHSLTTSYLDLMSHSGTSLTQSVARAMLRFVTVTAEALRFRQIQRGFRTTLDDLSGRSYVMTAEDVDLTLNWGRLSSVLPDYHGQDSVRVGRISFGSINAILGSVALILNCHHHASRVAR

Row | Compound | IC50 [1] [µM] | concentrations at which the compound was itself cytotoxic [3] | other results
1 | Cc1nc2c(=O)[nH]c(N)nc2o1 [8-methyl-9-oxaguanine] | ~400 |  | 
2 | Cc1ccc(/C=C/C(=O)NC2CCCc3ccccc32)o1 (stereo not drawn) [Compound 1, (E)-3-(5-methylfuran-2-yl)-N-(1,2,3,4-tetrahydronaphthalen-1-yl)prop-2-enamide] |  |  | IC50 [2]: ~700 µM; cytotoxicity of the compound itself [3]: did not exhibit significant cytotoxicity
3 | CC(C)Nc1nc(C#N)nc(NC(C)C)n1 [Compound 2, 4,6-bis(propan-2-ylamino)-1,3,5-triazine-2-carbonitrile] |  |  | cytotoxicity of the compound itself [3]: moderately cytotoxic
4 | COC(=O)C(C)N1C(=O)S/C(=C/c2ccc(N3CCCCCC3)o2)C1=O (stereo not drawn) [Compound 3, methyl 2-[(5E)-5-[[5-(azepan-1-yl)furan-2-yl]methylidene]-2,4-dioxo-1,3-thiazolidin-3-yl]propanoate] |  | less than 20 μM | 
5 | CS(=O)(=O)c1nc2ccccc2n1Cc1cccc2ccccc12 [Compound 4, 2-methylsulfonyl-1-(naphthalen-1-ylmethyl)benzimidazole] |  | > 30 µM | 
6 | O=C(OCc1ccc(F)cc1)c1cc(-c2ccco2)nc2ccccc12 [Compound 8, 4-fluorophenyl methyl 2-(furan-2-yl)quinoline-4-carboxylate] |  |  | IC50 ([2]; read-out: StxA1 IC50): 40 µM; IC50 ([2]; read-out: apparent IC50 for StxA1): ~40 µM
7 | O=C(CSc1nnc[nH]1)N(Cc1ccc(F)cc1)C1CCCCC1 [Compound C17-1, N-cyclohexyl-N-[(4-fluorophenyl)methyl]-2-(4H-1,2,4-triazol-3-ylsulfanyl)acetamide] |  | > 100 µM | IC50 [2]: 500 µM
8 | Nc1cc(O)c(N)c(O)n1 [DDP, 2,5-diamino-4-6-dihydroxypyridine] | 2200 |  | 
9 | Nc1nc2ncc(CNc3ccc(C(=O)O)cc3)nc2c(=O)[nH]1 [pteroic acid (PTA), pteroic acid] | ~600 |  | 
